Assay results: patent publication US7141573B2, “Polypharmacophoric agents” (Molecular Insight Pharmaceuticals, Inc., priority 2000, dated 2006)
Where two headings read alike, the source gives them in different places.

Tests used:
hNET [1] = molecular target: T1, hNET (Homo sapiens, UniProt P23975); assay: [3H]NE uptake in HEK-hNET cells; type: cell-based; conditions: Table II
T1 construct: expressed in transfected cells; host or cells: HEK cells expressing hNET

hNET [2] = molecular target: T1, hNET; assay: [125I]RTI-55 binding in HEK-hNET membranes; conditions: Table II
hDAT = molecular target: T2, hDAT (Homo sapiens, UniProt Q01959); assay: [3H]DA uptake in HEK hDAT cells; type: cell-based; conditions: Table II
T2 construct: expressed in transfected cells; host or cells: HEK-293 cells stably expressing recombinant hDAT

hSERT [3] = molecular target: T3, hSERT (Homo sapiens, UniProt P31645); assay: [3H]5HT uptake in HEK-hSERT cells; type: cell-based; conditions: Table II; bound given in μM
T3 construct: expressed in transfected cells; host or cells: HEK cells expressing hSERT

hSERT [4] = molecular target: T3, hSERT; assay: [125I]RTI-55 binding in HEK hSERT membranes; conditions: Table II; bound given in μM
[5] = molecular target: T4, human dopamine transporter (hDAT) (Homo sapiens, UniProt Q01959); assay: [125I]RTI-55 binding to human dopamine transporter in HEK-293 hDAT membranes; conditions: for Hill Coefficient: [125I]RTI-55 binding
T4 construct: expressed in transfected cells; host or cells: HEK-293 cells stably expressing recombinant hDAT
Description: To characterize drug interactions with the human dopamine transporter (hDAT), drugs (approximately 30 nM to 10 μM) were incubated with a membrane preparation from HEK-293 cells stably expressing the recombinant hDAT, [^125I]RTI-55 (34 pM), and buffer in a final volume of 250 μl. Independent assays were conducted 2 to 3 times with duplicate determinations. The Cheng-Prusoff equation was used to convert IC50 values to Ki values.

[6] = read-out: [3H]NE Uptake in HEK-hNET cells IC50 (nM) sem
[7] = bound given in μM, read-out: [125I]RTI-55 Binding in HEK-hNET Membranes KI
[8] = bound given in μM, read-out: [3H]DA Uptake in HEK hDAT cells IC50
[9] = Table II, bound given in μM, read-out: [125I]RTI-55 Binding in HEK hDAT Membranes Ki
[10] = bound given in μM, read-out: [3H]NE Uptake in HEK-hNET cells IC50
[11] = read-out: [125I]RTI-55 Binding in HEK-hNET Membranes KI (nM) sem
[12] = read-out: [3H]DA Uptake in HEK hDAT cells IC50 (nM) sem
[13] = Table 1, [125I]RTI-55 34 pM, HEK-293 hDAT membranes, mean +/- range or s.e.m. of 2 or 3 experiments, read-out: Ki value
[14] = Table 1, HEK-293 hDAT membranes
[15] = Table II, read-out: [125I]RTI-55 Binding in HEK hDAT Membranes Ki (nM) sem

T3 sequence (P31645 whole entry): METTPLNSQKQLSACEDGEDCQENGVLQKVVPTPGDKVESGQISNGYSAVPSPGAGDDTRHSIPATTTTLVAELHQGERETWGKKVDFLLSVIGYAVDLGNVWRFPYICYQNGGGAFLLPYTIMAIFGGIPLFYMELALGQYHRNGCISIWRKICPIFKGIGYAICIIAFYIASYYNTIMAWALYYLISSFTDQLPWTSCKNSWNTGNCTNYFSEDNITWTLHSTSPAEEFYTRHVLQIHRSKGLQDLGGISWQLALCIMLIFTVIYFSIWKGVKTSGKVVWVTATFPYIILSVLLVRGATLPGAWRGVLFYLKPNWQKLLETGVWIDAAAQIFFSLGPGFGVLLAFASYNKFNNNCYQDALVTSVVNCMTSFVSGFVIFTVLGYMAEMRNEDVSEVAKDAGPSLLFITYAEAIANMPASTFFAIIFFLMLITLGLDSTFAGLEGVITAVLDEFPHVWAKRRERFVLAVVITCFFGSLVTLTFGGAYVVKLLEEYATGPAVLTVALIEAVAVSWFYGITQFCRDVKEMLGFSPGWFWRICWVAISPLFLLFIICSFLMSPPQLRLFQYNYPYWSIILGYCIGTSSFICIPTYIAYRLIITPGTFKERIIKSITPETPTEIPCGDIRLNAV
T1 sequence (P23975 whole entry): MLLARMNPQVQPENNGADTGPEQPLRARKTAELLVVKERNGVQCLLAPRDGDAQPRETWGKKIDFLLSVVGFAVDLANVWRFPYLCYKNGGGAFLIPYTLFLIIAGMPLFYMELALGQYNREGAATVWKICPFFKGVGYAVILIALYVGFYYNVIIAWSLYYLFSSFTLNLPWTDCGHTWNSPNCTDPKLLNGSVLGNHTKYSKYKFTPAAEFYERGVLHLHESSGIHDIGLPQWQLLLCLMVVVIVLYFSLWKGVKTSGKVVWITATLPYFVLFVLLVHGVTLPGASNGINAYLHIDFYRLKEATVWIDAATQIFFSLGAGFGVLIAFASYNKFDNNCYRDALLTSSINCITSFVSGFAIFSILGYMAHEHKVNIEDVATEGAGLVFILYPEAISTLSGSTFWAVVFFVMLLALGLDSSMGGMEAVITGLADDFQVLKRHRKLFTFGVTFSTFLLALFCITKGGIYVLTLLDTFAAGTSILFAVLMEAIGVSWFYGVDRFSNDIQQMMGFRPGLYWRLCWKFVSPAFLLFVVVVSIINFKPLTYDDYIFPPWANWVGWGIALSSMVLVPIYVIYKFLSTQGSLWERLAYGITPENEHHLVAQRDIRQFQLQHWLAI
T4 sequence (Q01959 whole entry): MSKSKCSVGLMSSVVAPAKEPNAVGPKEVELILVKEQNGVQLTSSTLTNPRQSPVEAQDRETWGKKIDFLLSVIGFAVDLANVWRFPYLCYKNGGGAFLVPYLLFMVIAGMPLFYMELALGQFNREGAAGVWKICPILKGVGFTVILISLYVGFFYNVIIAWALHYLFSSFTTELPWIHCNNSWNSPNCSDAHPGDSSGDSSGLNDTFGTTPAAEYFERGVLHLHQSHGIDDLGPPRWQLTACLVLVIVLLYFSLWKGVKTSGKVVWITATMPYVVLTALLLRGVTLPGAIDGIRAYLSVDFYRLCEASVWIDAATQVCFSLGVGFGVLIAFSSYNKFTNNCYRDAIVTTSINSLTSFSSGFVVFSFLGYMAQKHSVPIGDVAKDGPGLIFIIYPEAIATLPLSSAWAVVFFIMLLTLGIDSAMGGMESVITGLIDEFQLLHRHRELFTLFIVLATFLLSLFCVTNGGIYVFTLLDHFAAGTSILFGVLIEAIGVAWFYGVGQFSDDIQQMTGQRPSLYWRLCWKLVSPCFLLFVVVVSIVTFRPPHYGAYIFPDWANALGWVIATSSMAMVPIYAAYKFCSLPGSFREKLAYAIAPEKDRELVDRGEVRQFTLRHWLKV
T2 sequence (Q01959 whole entry): as above

O=C(O)C(/C=C/c1ccccc1)N1CCC(c2ccccc2)CC1 (stereo not shown) [RNH-Z-24]
IC50 (hNET [1]; [6]): 204 ± 85 nM
Ki (hNET [2]; [7]): > 10 µM
IC50 (hDAT; [8]): > 10 µM
IC50 (hSERT [3]): > 10 µM
Ki (hSERT [4]): > 10 µM
Ki [5, 9]: > 10 µM

O=C(O)C(/C=C/c1ccccc1)NC1CCc2ccccc21 (stereo not shown) [RNH-Z-39]
IC50 (hNET [1]; [10]): > 10000 nM
[125I]RTI-55 Binding in HEK-hNET Membranes Hill slope (hNET [2]): −0.96 ± 0.17
Ki (hNET [2]; [11]): 2.92 ± 1.23 µM
IC50 (hDAT; [8]): > 10 µM
IC50 (hSERT [3]): > 10 µM
Ki (hSERT [4]): > 10 µM
Ki [5, 9]: > 10 µM

CN(CCC=C1c2ccccc2CCc2ccccc21)C(/C=C/c1ccccc1)C(=O)O (stereo not shown) [RNH-Z-44]
IC50 (hNET [1]; [10]): > 10000 nM
Ki (hNET [2]; [7]): > 10 µM
IC50 (hDAT; [12]): 1.82 ± 0.819 µM
IC50 (hSERT [3]): > 10 µM
Ki (hSERT [4]): > 10 µM
Ki [5, 13]: 3.3 ± 0.855 µM
Hill Coefficient [5, 14]: −2.2 ± 0.9
[125I]RTI-55 Binding in HEK hDAT Membranes Hill slope ([5]; Table II): −2.16 ± −0.89
Ki [5, 15]: 3.3 ± 0.855 µM

CN(CCCN1c2ccccc2C=Cc2ccccc21)C(/C=C/c1ccccc1)C(=O)O (stereo not shown) [RNH-Z-52]
IC50 (hNET [1]; [10]): > 10000 nM
Ki (hNET [2]; [7]): > 10 µM
IC50 (hDAT; [8]): > 10 µM
IC50 (hSERT [3]): > 10 µM
Ki (hSERT [4]): > 10 µM
Ki [5, 9]: > 10 µM

O=C(O)C(/C=C/c1ccccc1)C1CCN(CCOC(c2ccccc2)c2ccccc2)CC1 (stereo not shown) [ZHN-92]
IC50 (hNET [1]; [6]): 113 ± 15 nM
Ki (hNET [2]; [7]): > 10 µM
IC50 (hDAT; [12]): 2.01 ± 0.428 µM
IC50 (hSERT [3]): > 10 µM
Ki (hSERT [4]): > 10 µM
Ki [5, 13]: 3.71 ± 1.25 µM
Hill Coefficient [5, 14]: −1.2 ± 0.2
[125I]RTI-55 Binding in HEK hDAT Membranes Hill slope ([5]; Table II): −1.15 0.15

O=C(NCc1cccc2ccccc12)C(/C=C/c1ccccc1)N1CCC(c2ccccc2)CC1 (stereo not shown) [RNH-Z-31]
IC50 (hNET [1]; [10]): > 10000 nM
Ki (hNET [2]; [7]): > 10 µM
IC50 (hDAT; [8]): > 10 µM
IC50 (hSERT [3]): > 10 µM
Ki (hSERT [4]): > 10 µM
Ki [5, 13]: 7.73 ± 3.07 µM
Hill Coefficient [5, 14]: −7.0 ± 4.5
[125I]RTI-55 Binding in HEK hDAT Membranes Hill slope ([5]; Table II): −7.00 ± 4.54
Ki [5, 15]: 7.73 ± 3.07 µM

O=C(O)C(/C=C/c1ccccc1)N1CCC(O)(c2ccc(Cl)cc2)CC1 (stereo not shown) [RNH-Z-48]
IC50 (hNET [1]; [10]): > 10000 nM
Ki (hNET [2]; [7]): > 10 µM
IC50 (hDAT; [8]): > 10 µM
IC50 (hSERT [3]): > 10 µM
Ki (hSERT [4]): > 10 µM
Ki [5, 9]: > 10 µM

CC(Cc1cccc(C(F)(F)F)c1)NC(/C=C/c1ccccc1)C(=O)O (stereo not shown) [RNH-Z-58]
IC50 (hNET [1]; [10]): > 10000 nM
Ki (hNET [2]; [7]): > 10 µM
IC50 (hDAT; [8]): > 10 µM
IC50 (hSERT [3]): > 10 µM
Ki (hSERT [4]): > 10 µM
Ki [5, 9]: > 10 µM

CN(C)C(=O)C(/C=C/c1ccccc1)N1CCC(c2ccccc2)CC1 (stereo not shown) [RNH-Z-28]
IC50 (hNET [1]; [6]): 211 ± 65 nM
Ki (hNET [2]; [7]): > 10 µM
IC50 (hDAT; [12]): 4.04 ± 1.63 µM
IC50 (hSERT [3]): > 10 µM
Ki (hSERT [4]): > 10 µM
Ki [5, 13]: 3.92 ± 1.25 µM
Hill Coefficient [5, 14]: −2.1 ± 0.6
[125I]RTI-55 Binding in HEK hDAT Membranes Hill slope ([5]; Table II): −2.09 ± 0.60
Ki [5, 15]: 3.92 ± 1.25 µM

c1ccc(CCCN2CCN(CCOC(c3ccccc3)c3ccccc3)CC2)cc1 [GBR-12935, reference compound]
IC50 (hNET [1]; [6]): 165 ± 17 nM
[125I]RTI-55 Binding in HEK-hNET Membranes Hill slope (hNET [2]): −0.90 ± 0.07
Ki (hNET [2]; [11]): 0.628 ± 0.059 µM

O=C(O)C(/C=C/c1ccccc1)N1CCN(CCOC(c2ccccc2)c2ccccc2)CC1 (stereo not shown) [ZHN-94]
IC50 (hNET [1]; [6]): 2200 ± 470 nM
Ki (hNET [2]; [7]): > 10 µM
IC50 (hDAT; [12]): 0.385 ± 0.111 µM
IC50 (hSERT [3]): > 10 µM
Ki (hSERT [4]): > 10 µM
Ki [5, 13]: 2.78 ± 1.25 µM
Hill Coefficient [5, 14]: −0.8 ± 0.2
[125I]RTI-55 Binding in HEK hDAT Membranes Hill slope ([5]; Table II): −0.78 ± 0.17
Ki [5, 15]: 2.78 ± 1.25 µM

O=C(O)C(/C=C/c1ccccc1)C1CCN(CCOC(c2ccc(F)cc2)c2ccc(F)cc2)CC1 (stereo not shown) [ZHN-93]
IC50 (hNET [1]; [6]): 117 ± 20 nM
[125I]RTI-55 Binding in HEK-hNET Membranes Hill slope (hNET [2]): −1.78 ± 0.65
Ki (hNET [2]; [11]): 4.54 ± 1.54 µM
IC50 (hDAT; [12]): 0.182 ± 0.059 µM
IC50 (hSERT [3]): > 10 µM
Ki (hSERT [4]): > 10 µM
Ki [5, 13]: 0.727 ± 0.291 µM
Hill Coefficient [5, 14]: −1.0 ± 0.3
[125I]RTI-55 Binding in HEK hDAT Membranes Hill slope ([5]; Table II): −1.02 ± 0.30
Ki [5, 15]: 0.727 ± 0.291 µM
